{
  "source": "patent US10112899B2",
  "about": "(ViiV HEALTHCARE UK LIMITED, priority 2014, dated 2018)",
  "data": [
    {"system": "HIV in the HTLV-1 transformed cell line MT-4", "assay": "organism not typed", "type": "cell-based", "conditions": "MT4, 96 h, MT-4 cells; luciferase/cell titer glo readout after 96 hours; 10 point dose response", "units": {"IC50": "nM"}, "values": [
      {"molecule": "Cc1c(-c2c(C)c3c(c(C)c2[C@H](OC(C)(C)C)C(=O)O)CN(C(=O)N2CCCC(F)(F)C2)C3)cc(F)c2c1CCCO2", "note": "(atropisomer, axis not shown) [Example 102, (S)-2-(tert-butoxy)-2-((R)-2-(3,3-difluoropiperidine-1-carbonyl)-6-(8-fluoro-5-methylchroman-6-yl)-4,7-dimethylisoindolin-5-yl)acetic acid]", "IC50": 2},
      {"molecule": "Cc1c(-c2c(C)c3c(c(C)c2[C@H](OC(C)(C)C)C(=O)O)CN(Cc2cccc(F)c2)C3)cc(F)c2c1CCCO2", "note": "(atropisomer, axis not shown; (M)) [Example 8, (2S)(M)-2-(tert-Butoxy)-2-(-6-(8-fluoro-5-methylchroman-6-yl)-2-(3-fluorobenzyl)-4,7-dimethylisoindolin-5-yl)acetic acid]", "IC50": 5},
      {"molecule": "Cc1c(-c2c(C)c3c(c(C)c2[C@H](OC(C)(C)C)C(=O)O)CN(C(=O)N2CCC(F)(F)C2)C3)cc(F)c2c1CCCO2", "note": "(atropisomer, axis not shown; (M)) [Example 100, (2S)-2-(tert-Butoxy)-2-(2-(3,3-difluoropyrrolidine-1-carbonyl)-6-(M)-(8-fluoro-5-methylchroman-6-yl)-4,7-dimethylisoindolin-5-yl)acetic acid]", "IC50": 5},
      {"molecule": "Cc1c(-c2c(C)c3c(c(C)c2[C@H](OC(C)(C)C)C(=O)O)CN(C(=O)N2CCCCC2)C3)cc(F)c2c1CCCO2", "note": "(atropisomer, axis not shown; (M)) [Example 101, (2S)-2-(tert-butoxy)-2-(6-(M)-(8-fluoro-5-methylchroman-6-yl)-4,7-dimethyl-2-(piperidine-1-carbonyl)isoindolin-5-yl)acetic acid]", "IC50": 3},
      {"molecule": "Cc1c(-c2c(C)c3c(c(C)c2[C@H](OC(C)(C)C)C(=O)O)CN(C(=O)c2cccc(F)c2)C3)cc(F)c2c1CCCO2", "note": "(atropisomer, axis not shown; (M)) [Example 103, (2S)-2-(tert-butoxy)-2-((M)6-(8-fluoro-5-methylchroman-6-yl)-2-(3-fluorobenzoyl)-4,7-dimethylisoindolin-5-yl)acetic acid]", "IC50": 2},
      {"molecule": "Cc1c(-c2c(C)c3c(c(C)c2[C@H](OC(C)(C)C)C(=O)O)CN(C(=O)CC(C)(C)C)C3)cc(F)c2c1CCCO2", "note": "(atropisomer, axis not shown; (M)) [Example 104, (S)-2-(tert-butoxy)-2-((M)-2-(3,3-dimethylbutanoyl)-6-(8-fluoro-5-methylchroman-6-yl)-4,7-dimethylisoindolin-5-yl)acetic acid]", "IC50": 2},
      {"molecule": "Cc1c(-c2c(C)c3c(c(C)c2[C@H](OC(C)(C)C)C(=O)O)CN(C(=O)C2CCCCC2)C3)cc(F)c2c1CCCO2", "note": "(atropisomer, axis not shown; (M)) [Example 137, (S)-2-(tert-butoxy)-2-((M)-2-(cyclohexanecarbonyl)-6-(8-fluoro-5-methylchroman-6-yl)-4,7-dimethylisoindolin-5-yl)acetic acid]", "IC50": 2},
      {"molecule": "Cc1c(-c2c(C)c3c(c(C)c2[C@H](OC(C)(C)C)C(=O)O)CN(C(=O)c2cccc4c2OCO4)C3)cc(F)c2c1CCCO2", "note": "(atropisomer, axis not shown; (M)) [Example 138, (S)-2-((M)-2-(benzo[d][1,3]dioxole-4-carbonyl)-6-(8-fluoro-5-methylchroman-6-yl)-4,7-dimethylisoindolin-5-yl)-2-(tert-butoxy)acetic acid]", "IC50": 2},
      {"molecule": "COc1cccc(C(=O)N2Cc3c(C)c(-c4cc(F)c5c(c4C)CCCO5)c([C@H](OC(C)(C)C)C(=O)O)c(C)c3C2)c1C", "note": "(atropisomer, axis not shown; (M)) [Example 139, (S)-2-(tert-butoxy)-2-((M)-6-(8-fluoro-5-methylchroman-6-yl)-2-(3-methoxy-2-methylbenzoyl)-4,7-dimethylisoindolin-5-yl)acetic acid]", "IC50": 37},
      {"molecule": "COc1cc(F)cc(C(=O)N2Cc3c(C)c(-c4cc(F)c5c(c4C)CCCO5)c([C@H](OC(C)(C)C)C(=O)O)c(C)c3C2)c1", "note": "(atropisomer, axis not shown; (M)) [Example 140, (S)-2-(tert-butoxy)-2-((M)-2-(3-fluoro-5-methoxybenzoyl)-6-(8-fluoro-5-methylchroman-6-yl)-4,7-dimethylisoindolin-5-yl)acetic acid]", "IC50": 2},
      {"molecule": "Cc1c(F)cccc1C(=O)N1Cc2c(C)c(-c3cc(F)c4c(c3C)CCCO4)c([C@H](OC(C)(C)C)C(=O)O)c(C)c2C1", "note": "(atropisomer, axis not shown; (M)) [Example 141, (S)-2-(tert-butoxy)-2-((M)-2-(3-fluoro-2-methylbenzoyl)-6-(8-fluoro-5-methylchroman-6-yl)-4,7-dimethylisoindolin-5-yl)acetic acid]", "IC50": 4},
      {"molecule": "Cc1ncccc1C(=O)N1Cc2c(C)c(-c3cc(F)c4c(c3C)CCCO4)c([C@H](OC(C)(C)C)C(=O)O)c(C)c2C1", "note": "(atropisomer, axis not shown; (M)) [Example 142, (S)-2-(tert-butoxy)-2-((M)-6-(8-fluoro-5-methylchroman-6-yl)-4,7-dimethyl-2-(2-methylnicotinoyl)isoindolin-5-yl)acetic acid]", "IC50": 31},
      {"molecule": "COc1cncc(C(=O)N2Cc3c(C)c(-c4cc(F)c5c(c4C)CCCO5)c([C@H](OC(C)(C)C)C(=O)O)c(C)c3C2)c1", "note": "(atropisomer, axis not shown; (M)) [Example 143, (S)-2-(tert-butoxy)-2-((M)-6-(8-fluoro-5-methylchroman-6-yl)-2-(5-methoxynicotinoyl)-4,7-dimethylisoindolin-5-yl)acetic acid]", "IC50": 4},
      {"molecule": "Cc1ccc(C(=O)N2Cc3c(C)c(-c4cc(F)c5c(c4C)CCCO5)c([C@H](OC(C)(C)C)C(=O)O)c(C)c3C2)cc1F", "note": "(atropisomer, axis not shown; (M)) [Example 144, (S)-2-(tert-butoxy)-2-((M)-2-(3-fluoro-4-methylbenzoyl)-6-(8-fluoro-5-methylchroman-6-yl)-4,7-dimethylisoindolin-5-yl)acetic acid]", "IC50": 5},
      {"molecule": "Cc1cc(C(=O)N2Cc3c(C)c(-c4cc(F)c5c(c4C)CCCO5)c([C@H](OC(C)(C)C)C(=O)O)c(C)c3C2)ccc1F", "note": "(atropisomer, axis not shown; (M)) [Example 145, (S)-2-(tert-butoxy)-2-((M)-2-(4-fluoro-3-methylbenzoyl)-6-(8-fluoro-5-methylchroman-6-yl)-4,7-dimethylisoindolin-5-yl)acetic acid]", "IC50": 2},
      {"molecule": "Cc1ccccc1C(=O)N1Cc2c(C)c(-c3cc(F)c4c(c3C)CCCO4)c([C@H](OC(C)(C)C)C(=O)O)c(C)c2C1", "note": "(atropisomer, axis not shown; (M)) [Example 146, (S)-2-(tert-butoxy)-2-((M)-6-(8-fluoro-5-methylchroman-6-yl)-4,7-dimethyl-2-(2-methylbenzoyl)isoindolin-5-yl)acetic acid]", "IC50": 3},
      {"molecule": "Cc1c(-c2c(C)c3c(c(C)c2[C@H](OC(C)(C)C)C(=O)O)CN(C(=O)c2cccc(Cl)c2)C3)cc(F)c2c1CCCO2", "note": "(atropisomer, axis not shown; (M)) [Example 147, (S)-2-(tert-butoxy)-2-((M)-2-(3-chlorobenzov)-6-(8-fluoro-5-methylchroman-6-yl)-4,7-dimethylisoindolin-5-yl)acetic acid]", "IC50": 13}
    ]}
  ]
}
